{"source": "paper PMC10541190", "about": "(The Journal of Clinical Investigation, 2023)", "key": {"[1]": {"system": "SARS-CoV-2 (USA-WA1/2020)", "test": "microbe, parasite or virus in culture", "format": "cell-based", "conditions": "for EC50: Severe acute respiratory syndrome coronavirus 2, Vero, 24 h, read-out: SARS-CoV-2 EC50"}, "U-87 MG cells": {"system": "U-87 MG cells", "conditions": "human"}, "in vitro [2]": {"test": "in vitro", "conditions": "African green monkey"}, "[3]": {"system": "SARS-CoV-2 (Belgium-GHB-03021)", "format": "cell-based"}, "VEEV (TC-83)": {"system": "VEEV (TC-83)", "format": "cell-based"}, "DENV2": {"system": "DENV2", "format": "cell-based"}, "in vitro [4]": {"test": "in vitro", "conditions": "human, Huh7 cell viability (%)"}, "Huh7 cells": {"system": "Huh7 cells", "conditions": "human"}, "in vitro [5]": {"test": "in vitro", "conditions": "human, U-87 MG cell viability (%)"}}, "note": "Several values for one entry are separate records, joined by “and”; a condition that tells them apart may be missing. Equal entries are not always repeated. Where two headings read alike, the source gives them in different places.", "data": [{"compound": "CS(=O)(=O)CCNCc1ccc(-c2ccc3ncnc(Nc4ccc(OCc5cccc(F)c5)c(Cl)c4)c3c2)o1", "note": "[Lapati-nib]", "values": [{"measurement": "SARS-CoV-2 infection (%)", "setting": "[1]; 0.25 μM", "value": "46.09% and 52.84% and 47.65%"}, {"measurement": "SARS-CoV-2 infection (%)", "setting": "[1]; 0.74 μM", "value": "18.11% and 21.05% and 22.00% and 22.88% and 28.58%"}, {"measurement": "SARS-CoV-2 infection (%)", "setting": "[1]; 2.22 μM", "value": "20.01% and 16.81% and 28.24% and 14.29% and 20.00%"}, {"measurement": "U-87 MG cell viability (%)", "setting": "U-87 MG cells; 0.37 µM", "value": 129.28, "unit": "%"}, {"measurement": "viability at 20 µM", "setting": "in vitro [2]; Cell viability (%)", "value": 67, "unit": "%"}]}, {"compound": "CC[C@@H](C(=O)[C@@H](C)[C@@H](O)[C@H](C)[C@@H]1O[C@@H]([C@@H](CC)C(=O)O)CC[C@@H]1C)[C@H]1O[C@]2(C=C[C@@H](O)[C@]3(CC[C@@](C)([C@H]4CC[C@](O)(CC)[C@H](C)O4)O3)O2)[C@H](C)C[C@@H]1C", "note": "[salinomycin]", "values": [{"measurement": "Fluorescence (%area)", "setting": "[3]", "value": "greater than 15"}]}, {"compound": "[N-]=[N+]=CC(=O)OC[C@H](N)C(=O)O", "note": "[Azaserine]", "values": [{"measurement": "EC50", "setting": "[1]", "value": 0.7, "unit": "µM"}, {"measurement": "replication of TC-83", "setting": "VEEV (TC-83)", "value": "dose-dependently inhibited replication"}, {"measurement": "replication of DENV2", "setting": "DENV2", "value": "dose-dependently inhibited replication"}, {"measurement": "CC50", "setting": "in vitro [2]", "value": "> 20", "unit": "µM"}, {"measurement": "viability at 0.37 µM", "setting": "in vitro [4]", "value": 114, "unit": "%"}, {"measurement": "viability at 3.33 µM", "setting": "in vitro [4]", "value": 69.5, "unit": "%"}, {"measurement": "viability at 10 µM", "setting": "in vitro [4]", "value": 60.6, "unit": "%"}, {"measurement": "viability at […]", "setting": "in vitro [4]", "value": 107, "unit": "%"}]}, {"compound": "CC(=O)O[C@@H]1C[C@H]2C(C)(C)C(=O)C=C[C@]2(C)[C@H]2CC[C@@]3(C)[C@H](c4ccoc4)OC(=O)[C@H]4O[C@]43[C@@]21C", "note": "[Gedunin]", "values": [{"measurement": "SARS-CoV-2 infection (%)", "setting": "[1]; 0.625 μM", "value": "97.75% and 70.79% and 84.27%"}, {"measurement": "SARS-CoV-2 infection (%)", "setting": "[1]; 1.25 μM", "value": "57.30% and 67.42% and 50.56%"}, {"measurement": "SARS-CoV-2 infection (%)", "setting": "[1]; 5 μM", "value": "0.67% and 1.04% and 1.31%"}, {"measurement": "SARS-CoV-2 infection (%)", "setting": "[1]; 20 μM", "value": 0.00337, "unit": "%"}, {"measurement": "EC50", "setting": "[1]", "value": 1.4, "unit": "µM"}, {"measurement": "replication of TC-83", "setting": "VEEV (TC-83)", "value": "dose-dependently inhibited replication"}, {"measurement": "replication of DENV2", "setting": "DENV2", "value": "dose-dependently inhibited replication"}, {"measurement": "Cell viability (%)", "setting": "Vero cells; 0.625 μM", "value": "106.58% and 104.74%"}, {"measurement": "Cell viability (%)", "setting": "Vero cells; 1.25 μM", "value": 98.66, "unit": "%"}, {"measurement": "Cell viability (%)", "setting": "Vero cells; 5 μM", "value": "83.37% and 75.82%"}, {"measurement": "Cell viability (%)", "setting": "Vero cells; 20 μM", "value": "88.12% and 85.24%"}, {"measurement": "Huh7 cell viability (%)", "setting": "Huh7 cells; 0.37 µM", "value": 96.29, "unit": "%"}, {"measurement": "CC50", "setting": "in vitro [2]", "value": "> 20", "unit": "µM"}, {"measurement": "viability at 0.625 µM", "setting": "in vitro [2]; Cell viability (%), 0.625 μM", "value": 107, "unit": "%"}, {"measurement": "viability at 1.25 µM", "setting": "in vitro [2]; Cell viability (%), 1.25 μM", "value": 105, "unit": "%"}, {"measurement": "viability at 5 µM", "setting": "in vitro [2]; Cell viability (%)", "value": 82.9, "unit": "%"}, {"measurement": "viability at 20 µM", "setting": "in vitro [2]; Cell viability (%)", "value": 86.5, "unit": "%"}, {"measurement": "viability at 0.37 µM", "setting": "in vitro [5]", "value": 81.9, "unit": "%"}, {"measurement": "viability at 3.33 µM", "setting": "in vitro [5]", "value": 79.5, "unit": "%"}, {"measurement": "viability at 10 µM", "setting": "in vitro [5]", "value": 75.7, "unit": "%"}, {"measurement": "viability at […]", "setting": "in vitro [5]", "value": "79.1% and 86.8%"}, {"measurement": "viability at 0.123 µM", "setting": "in vitro [4]", "value": 97.1, "unit": "%"}, {"measurement": "viability at 0.37 µM", "setting": "in vitro [4]", "value": 97.4, "unit": "%"}, {"measurement": "viability at 1.111 µM", "setting": "in vitro [4]", "value": 96.9, "unit": "%"}, {"measurement": "viability at 3.333 µM", "setting": "in vitro [4]", "value": 94.3, "unit": "%"}, {"measurement": "viability at 10 µM", "setting": "in vitro [4]", "value": 85, "unit": "%"}]}, {"compound": "CC(C)(C)NCC(O)c1ccc(O)c(CO)c1", "note": "(stereo not drawn) [Salbutamol]", "values": [{"measurement": "activity against SARS-CoV-2", "setting": "[1]", "value": "minimal to no activity"}, {"measurement": "EC50", "setting": "[1]", "value": "> 20", "unit": "µM"}, {"measurement": "replication of TC-83", "setting": "VEEV (TC-83)", "value": "minimal to no activity"}, {"measurement": "replication of DENV2", "setting": "DENV2", "value": "minimal to no activity"}, {"measurement": "CC50", "setting": "in vitro [2]", "value": "> 20", "unit": "µM"}]}, {"compound": "CCN(CC)CCNC(=O)c1c(C)[nH]c(/C=C2\\C(=O)Nc3ccc(F)cc32)c1C", "note": "[Sunitinib]", "values": [{"measurement": "SARS-CoV-2 infection (%)", "setting": "[1]; 0.5 μM", "value": "94.03% and 125.37% and 116.42%"}, {"measurement": "SARS-CoV-2 infection (%)", "setting": "[1]; 1 μM", "value": "116.42% and 85.07% and 94.03%"}, {"measurement": "SARS-CoV-2 infection (%)", "setting": "[1]; 5 μM", "value": "16.57% and 14.33% and 15.67%"}, {"measurement": "EC50", "setting": "[1]", "value": 2.4, "unit": "µM"}, {"measurement": "U-87 MG cell viability (%)", "setting": "U-87 MG cells; 5 µM", "value": 106.81, "unit": "%"}, {"measurement": "Huh7 cell viability (%)", "setting": "Huh7 cells; 1.25 µM", "value": 90.21, "unit": "%"}, {"measurement": "Huh7 cell viability (%)", "setting": "Huh7 cells; 2.5 µM", "value": 75.37, "unit": "%"}, {"measurement": "CC50", "setting": "in vitro [2]", "value": 12.2, "unit": "µM"}, {"measurement": "viability at 2.5 µM", "setting": "in vitro [2]; Cell viability (%), 2.5 μM", "value": 68.8, "unit": "%"}, {"measurement": "viability at 5 µM", "setting": "in vitro [2]; Cell viability (%)", "value": 66.1, "unit": "%"}, {"measurement": "viability at 0.25 µM", "setting": "in vitro [5]", "value": 118, "unit": "%"}, {"measurement": "viability at 0.74 µM", "setting": "in vitro [5]", "value": 110, "unit": "%"}, {"measurement": "viability at 2.5 µM", "setting": "in vitro [5]", "value": 106, "unit": "%"}, {"measurement": "viability at 20 µM", "setting": "in vitro [5]", "value": 44.6, "unit": "%"}, {"measurement": "viability at 0.16 µM", "setting": "in vitro [4]", "value": 102, "unit": "%"}, {"measurement": "viability at 0.63 µM", "setting": "in vitro [4]", "value": 99.8, "unit": "%"}, {"measurement": "viability at 1.25 µM", "setting": "in vitro [4]", "value": 89.5, "unit": "%"}, {"measurement": "viability at 10 µM", "setting": "in vitro [4]", "value": 59, "unit": "%"}]}, {"compound": "CC(C)(C)c1cc(C=C(C#N)C#N)cc(C(C)(C)C)c1O", "note": "[Tyrphostin A9]", "values": [{"measurement": "EC50", "setting": "[1]", "value": 16.5, "unit": "µM"}, {"measurement": "anti-TC-83 and DENV2 activity compared with anti-SARS-CoV-2 activity", "setting": "VEEV (TC-83)", "value": "more potent"}, {"measurement": "CC50", "setting": "in vitro [2]", "value": "> 20", "unit": "µM"}, {"measurement": "viability at 0.25 µM", "setting": "in vitro [5]", "value": 96.7, "unit": "%"}, {"measurement": "viability at 0.74 µM", "setting": "in vitro [5]", "value": 85, "unit": "%"}, {"measurement": "viability at 2.22 µM", "setting": "in vitro [5]", "value": 85.2, "unit": "%"}, {"measurement": "viability at 6.67 µM", "setting": "in vitro [5]", "value": 78.3, "unit": "%"}, {"measurement": "viability at 20 µM", "setting": "in vitro [5]", "value": 70.1, "unit": "%"}, {"measurement": "viability at 0.37 µM", "setting": "in vitro [4]", "value": 101, "unit": "%"}, {"measurement": "viability at 3.33 µM", "setting": "in vitro [4]", "value": 89.2, "unit": "%"}, {"measurement": "viability at 10 µM", "setting": "in vitro [4]", "value": 88, "unit": "%"}, {"measurement": "viability at […]", "setting": "in vitro [4]", "value": "90.8% and 98.7%"}]}, {"compound": "CCC(CC)COC(=O)[C@H](C)N[P@](=O)(OC[C@H]1O[C@@](C#N)(c2ccc3c(N)ncnn23)[C@H](O)[C@@H]1O)Oc1ccccc1", "note": "[Remdesivir]", "values": [{"measurement": "rescue of Vero-eGFP cells from SARS-CoV-2-induced lethality, dose response", "setting": "[3]", "value": "dose-dependent anti-SARS-CoV-2 activity"}]}, {"compound": "CC[C@@]1([C@@H]2O[C@@H]([C@H]3O[C@@](O)(CO)[C@H](C)C[C@@H]3C)C[C@@H]2C)CC[C@H]([C@]2(C)CC[C@]3(C[C@H](O)[C@@H](C)[C@@H]([C@@H](C)[C@@H](OC)[C@H](C)C(=O)O)O3)O2)O1", "note": "[Monensin]", "values": [{"measurement": "EC50", "setting": "[1]", "value": 1.2, "unit": "µM"}, {"measurement": "replication of TC-83", "setting": "VEEV (TC-83)", "value": "dose-dependently inhibited replication"}, {"measurement": "replication of DENV2", "setting": "DENV2", "value": "dose-dependently inhibited replication"}, {"measurement": "CC50", "setting": "in vitro [2]", "value": "> 20", "unit": "µM"}, {"measurement": "viability at 0.37 µM", "setting": "in vitro [4]", "value": 70.5, "unit": "%"}, {"measurement": "viability at 3.33 µM", "setting": "in vitro [4]", "value": 32.2, "unit": "%"}, {"measurement": "viability at 10 µM", "setting": "in vitro [4]", "value": 22.1, "unit": "%"}, {"measurement": "viability at […]", "setting": "in vitro [4]", "value": "47.9% and 83.7%"}]}]}
